{
  "source": "paper PMC3917258",
  "about": "“6-Bromoisatin Found in Muricid Mollusc Extracts Inhibits Colon Cancer Cell Proliferation and Induces Apoptosis, Preventing Early Stage Tumor Formation in a Colorectal Cancer Rodent Model” (Marine Drugs, 2013)",
  "key": {"[1]": {"design": "method as in PMID 20150770", "details": "low pH, simulated digestive fluid; cited from earlier work"}, "HT29 cells [2]": {"test_system": "HT29 cells", "assay": "Light microscopy of cell morphology (apoptosis)", "format": "cell-based, human", "details": "12 h", "protocol": "(§1) The cells were harvested from flasks by trypsinization (1× Trypsin-EDTA) and were seeded (20,000 cells/well) into clear 96-well plates (Costar®, Mt Martha, VIC, Australia) for measurement of cell viability and white (opaque) 96-well plates (Interpath, Heidelberg West, VIC, Australia) for determination of apoptosis and necrosis. HT29 cells were incubated for 48 h, then the media was removed and the cells were washed with PBS. To treat the cells, synthetic 6-bromoisatin was dissolved in 100% dimethylsulphoxide (DMSO) then diluted in media and added to the cells at a range of concentrations from 0.1 to 0.01 mg/mL, in triplicate (final DMSO concentration of 1%). 1% DMSO controls were also included on each plate. Staurosporine (5 µM) for apoptosis and lysis solution (5 μL/well, Promega, Alexandria, NSW, Australia) for necrosis were added to the white plates in triplicate, as positive controls. All cells were treated for 12 h. Morphological changes in the cells were observed on an Olympus CK2 inverted optical microscope (×400 magnification) 12 h after treatment. To measure cell viability, the MTT assay was applied, which measures the reduction of MTT tetrazolium salt to formazan, as previously described. To measure necrosis and apoptosis, CytoTox-ONE Homogeneous Membrane Integrity Assay reagent (Promega) and Caspase-Glo 3/7® assay (Promega) were applied respectively, according to our previous study. These assays were all repeated in triplicate on three separate occasions (n = 3)."}, "[3]": {"assay": "Body and liver weight of treated mice", "format": "in vivo, mice (C57BL/6J)", "details": "mean ± S.E.; for Liver weight / Liver/Body (%): day of kill; for Total weight Gain / Body weight (Day1) / Body weight (Day5) / Body weight (Day10) / Body weight (Day14): mice", "protocol": "(§2) This experiment was conducted under Flinders animal welfare approval number 751-10. A total of 38 wild-type (C57BL/6J) male mice aged 10 weeks were obtained from the Animal Resource Centre, Perth, Western Australia. Mice were divided randomly into 4 groups (ten mice in each treatment group and 8 mice in the sunflower oil only control group) and housed in 8 cages (four to five mice per cage). The mice were given water and food (rodent chow) ad libitum and maintained at the temperature of 22 ± 2 °C and humidity of 80% ± 10% with a 12 h light/dark cycle. Mice were weighed every five days and on the day of kill, and monitored daily for signs of illness, such as weight and hair loss, diarrhea, constipation, rectal bleeding, labored breathing, lethargy, eye and nose discharge.\nTo detect the early stage prevention of colon cancer, an established AARGC rodent model with injection of the carcinogen AOM was used. Synthetic 6-bromoisatin at 3 different dosages (0.025, 0.05 and 0.1 mg/g body weight) was administered to mice by daily oral gavage in 100 µL sunflower oil, containing 0.02% Vitamin E, for two weeks. The control group was gavaged with sunflower oil (containing 0.02% Vitamin E) only. After two weeks, all mice were injected with a single intraperitoneal (i.p.) injection of AOM at a dosage of 10 mg/kg bodyweight and euthanized 6 h later by cervical dislocation under anesthesia. […] The distal colon of each mouse was excised and fixed in 10% buffered formalin for 24 h and then embedded in paraffin for histological and immunohistological examination."}, "distal colon crypts": {"test_system": "distal colon crypts", "assay": "AARGC mouse model: crypt height", "format": "in vivo, mice (C57BL/6J)", "details": "0.025-0.1 mg/g daily oral gavage 14 days, 6 h post AOM", "protocol": "as §2\nTo detect the early stage prevention of colon cancer, an established AARGC rodent model with injection of the carcinogen AOM was used. Synthetic 6-bromoisatin at 3 different dosages (0.025, 0.05 and 0.1 mg/g body weight) was administered to mice by daily oral gavage in 100 µL sunflower oil, containing 0.02% Vitamin E, for two weeks. […]\nDistal colon segments were embedded in paraffin and sectioned at 4 µm (3–4 sections per mouse), then stained with hematoxylin, to evaluate apoptosis in epithelial cells of distal colon sections. […] The mean crypt column height was also determined."}, "[4]": {"assay": "General observations for signs of illness", "format": "in vivo, mice (C57BL/6J)", "details": "mice, 0.025-0.1 mg/g daily oral gavage two weeks", "protocol": "as §2"}, "HT29 cells [5]": {"test_system": "HT29 cells", "assay": "MTT cell viability assay", "format": "cell-based, human", "details": "for reduction of cell viability: relative to DMSO control, 12 h", "protocol": "as §1, with “All media and chemicals were purchased from Sigma Aldrich (Castle Hill, NSW, Australia) unless otherwise stated. HT29 human colorectal cancer cell line (passage no. 36-42) were cultured (37 °C and 5% CO2) in Dulbecco’s Modified Eagle’s Medium (DMEM) supplemented with 4500 mg/L L-glutamine, 10% FBS, 100 U/mL Penicillin/Streptomycin and 1% Non-essential Amino Acid (100×), until the cells reached 70% confluence. The cells” for “The cells”, “with PBS. […] 1% DMSO” for “with PBS. To treat the cells, synthetic 6-bromoisatin was dissolved in 100% dimethylsulphoxide (DMSO) then diluted in media and added to the cells at a range of concentrations from 0.1 to 0.01 mg/mL, in triplicate (final DMSO concentration of 1%). 1% DMSO”"}, "[6]": {"details": "0.025 mg/g daily oral gavage 14 days"}, "[7]": {"details": "0.05 mg/g daily oral gavage 14 days"}, "[8]": {"details": "0.1 mg/g daily oral gavage 14 days"}},
  "note": "Where “and” joins values, the source holds several entries; their conditions need not be identical. Equal entries are not always repeated.",
  "data": [
    {"smiles": "O=C1Nc2cc(Br)ccc2C1=O", "note": "[6-bromoisatin, 6-Bromoindole-2,3-dione]", "values": [
      {"measurement": "stability", "setting": "[1]", "value": "stable at low pH"},
      {"measurement": "cell morphology", "setting": "HT29 cells [2]; 112 μM", "value": "morphological alterations, such as chromatin condensation, characteristic of the apoptotic process"},
      {"measurement": "cell morphology", "setting": "HT29 cells [2]; 223 μM", "value": "morphological alterations, such as chromatin condensation, characteristic of the apoptotic process"},
      {"measurement": "cell morphology", "setting": "HT29 cells [2]; 446 μM, in lower numbers than the two other doses", "value": "Apoptotic cells were also observed"},
      {"measurement": "Liver weight", "setting": "[3]; [6]", "value": "1.0 ± 0.1", "unit": "g"},
      {"measurement": "Liver/Body (%)", "setting": "[3]; [6]", "value": "4.4 ± 0.6", "unit": "%"},
      {"measurement": "Total weight Gain", "setting": "[3]; [6]", "value": "1.4 ± 0.8", "unit": "g"},
      {"measurement": "Body weight (Day1)", "setting": "[3]; 0.025 mg/g daily oral gavage", "value": "22.2 ± 1.3", "unit": "g"},
      {"measurement": "Body weight (Day5)", "setting": "[3]; 0.025 mg/g daily oral gavage", "value": "22.7 ± 1.3", "unit": "g"},
      {"measurement": "Body weight (Day10)", "setting": "[3]; 0.025 mg/g daily oral gavage", "value": "23.0 ± 1.3", "unit": "g"},
      {"measurement": "Body weight (Day14)", "setting": "[3]; 0.025 mg/g daily oral gavage", "value": "23.6 ± 1.4", "unit": "g"},
      {"measurement": "Liver weight", "setting": "[3]; [7]", "value": "1.2 ± 0.1", "unit": "g"},
      {"measurement": "Liver/Body (%)", "setting": "[3]; [7]", "value": "5.2 ± 0.6", "unit": "%"},
      {"measurement": "Total weight Gain", "setting": "[3]; [7]", "value": "1.4 ± 1.0", "unit": "g"},
      {"measurement": "Body weight (Day1)", "setting": "[3]; 0.05 mg/g daily oral gavage", "value": "22.6 ± 1.2", "unit": "g"},
      {"measurement": "Body weight (Day5)", "setting": "[3]; 0.05 mg/g daily oral gavage", "value": "23.4 ± 1.2", "unit": "g"},
      {"measurement": "Body weight (Day10)", "setting": "[3]; 0.05 mg/g daily oral gavage", "value": "23.4 ± 1.5", "unit": "g"},
      {"measurement": "Body weight (Day14)", "setting": "[3]; 0.05 mg/g daily oral gavage", "value": "24.1 ± 1.6", "unit": "g"},
      {"measurement": "Liver weight", "setting": "[3]; [8]", "value": "1.3 ± 0.1", "unit": "g"},
      {"measurement": "Liver/Body (%)", "setting": "[3]; [8]", "value": "5.3 ± 0.4", "unit": "%"},
      {"measurement": "Total weight Gain", "setting": "[3]; [8]", "value": "1.4 ± 0.8", "unit": "g"},
      {"measurement": "Body weight (Day1)", "setting": "[3]; 0.1 mg/g daily oral gavage", "value": "22.3 ± 1.3", "unit": "g"},
      {"measurement": "Body weight (Day5)", "setting": "[3]; 0.1 mg/g daily oral gavage", "value": "22.6 ± 1.3", "unit": "g"},
      {"measurement": "Body weight (Day10)", "setting": "[3]; 0.1 mg/g daily oral gavage", "value": "23.3 ± 1.3", "unit": "g"},
      {"measurement": "Body weight (Day14)", "setting": "[3]; 0.1 mg/g daily oral gavage", "value": "23.8 ± 1.6", "unit": "g"},
      {"measurement": "colon crypt height", "setting": "distal colon crypts", "value": "no significant effect"},
      {"measurement": "diarrhea / stool consistency", "setting": "[4]", "value": "no diarrhea or change in stool consistency"},
      {"measurement": "signs of illness", "setting": "[4]", "value": "did not show any signs of illness"},
      {"measurement": "reduction of cell viability", "setting": "HT29 cells [5]; 0.01 mg/mL", "value": "no significant reduction"},
      {"measurement": "reduction of cell viability", "setting": "HT29 cells [5]; 0.025 mg/mL", "value": 26, "unit": "%"},
      {"measurement": "reduction of cell viability", "setting": "HT29 cells [5]; 0.05 mg/mL", "value": 53, "unit": "%"},
      {"measurement": "reduction of cell viability", "setting": "HT29 cells [5]; 1 mg/mL", "value": 64, "unit": "%"},
      {"measurement": "IC50", "setting": "HT29 cells [5]; Homo sapiens, HT-29, HT29 cells, MTT, 12 h treatment, 1% DMSO", "value": "223 µM and 50 µg/mL"}
    ]}
  ]
}
